In ChEMBL document CHEMBL3580641, “Bioactive Maleic Anhydrides and Related Diacids from the Aquatic Hyphomycete Tricladium castaneicola” (J Nat Prod, 2015) one finds Activity and IC50 data, which are given here for nine compounds.

Active and inactive are the calls of the source. The calls are words filed in the database; no cut-off is given here.

In general, IC50 refers to the concentration at which inhibition is half-maximal.

Assay [1] concerns Phytophthora capsici. Nature of the assay: Antifungal activity against Phytophthora capsici NBRC 30696 after 22 to 24 hrs by paper disk diffusion method. The class given is functional, organism-based.
Assay [2] has as its system B16. As to the kind of experiment: Cytotoxicity against mouse B16 cells assessed as cell viability after 48 hrs by MTT assay. It counts as functional, cell-based. To be noted: B16, 48 h. (In general: Tetrazolium assays rely on reduction of a dye to a coloured formazan, in cell work by metabolically active cells.)

For the compound `CCCCCC/C=C/C1=C(C)C(=O)OC1=O`, the result in assay [1] was Active. For the same compound, the IC50 in assay [2] was found to be 80 µM.
With `C=C(C(=O)O)/C(=C\CCCC[C@@H](O)CC)C(=O)O`, the outcome in assay [1] was Active.
The same measure, in the same setting: the same measure for `CC1=C(/C=C/CCCCC(C)O)C(=O)OC1=O` (stereo unspecified): “inactive”; for `C[C@@H]1[C@H](O)[C@@H](C)/C=C/C=C/C=C/C=C/C=C/C=C/C=C/[C@H](O[C@@H]2O[C@H](C)[C@@H](O)[C@H](N)[C@@H]2O)C[C@@H]2O[C@](O)(C[C@@H](O)C[C@@H](O)[C@H](O)CC[C@@H](O)C[C@@H](O)CC(=O)O[C@H]1C)C[C@H](O)[C@H]2C(=O)O`: “Active”; for `CC1=C(/C=C/CCC/C=C/C(=O)O)C(=O)OC1=O`: “Active”.
As to `CC(=O)O[C@H]1C(=O)[C@@]2(C)[C@H]([C@H](OC(=O)c3ccccc3)[C@]3(O)C[C@H](OC(=O)[C@H](O)[C@@H](NC(=O)c4ccccc4)c4ccccc4)C(C)=C1C3(C)C)[C@]1(OC(C)=O)CO[C@@H]1C[C@@H]2O` [PACLITAXEL], the IC50 in assay [2] is 56 µM.
As to `C=C(C(=O)O)/C(=C\CCCCCCCO)C(=O)O`, the result in assay [1] was Active.
Still for that read-out and setting: to `CC1=C(/C=C/CCC/C=C/CO)C(=O)OC1=O` belongs “inactive”.
Take `CCCCCC/C=C/C(C(=O)OC)=C(\C)C(=O)OC`: the outcome in assay [1] was Active. Also, the IC50 in assay [2] amounted to 30 µM.
